Among the data in paper PMC5190074, “BET inhibition as a new strategy for the treatment of gastric cancer” (Oncotarget, 2016) are ΔTm values, retold here.

In the test the target is T1, BRD4(1), first bromodomain of BRD4 (Homo sapiens, UniProt O60885).
T1 construct: first bromodomain; BRD4_HUMAN O60884-1 fragment 44-168 (crystallography)
Description: biochemical. The note with it: read-out: ΔTm Shift (oC). Also on record: thermal shift assay, SAR of isoxazole compounds against BRD4(1). How it is done: The recombinant bromodomains at 2 μM were mixed with 10 μM inhibitors. The assays and data evaluation for melting temperatures were performed using a Real-Time PCR Mx3005p machine (Stratagene) and the protocols previously described. Experiments profiling the final compound (PNZ5) were performed in quadruplicates. Isoxazoles have been explored previously as BET bromodomain inhibitors. We have developed PNZ5, a new isoxazole-based inhibitor originating from the lead compound S1 (Figure 1). PNZ5 was developed as the result of a structure-based lead optimisation program. Dihydroindene S1 was identified as a ligand against BRD4(1) (pIC50 5.9). Investigation of the co-crystal structure of S1 with BRD4(1) [PDB ID 4GPJ] identified a number of positions for potential optimisation: addition of a carbonyl group at C-3 was envisaged to benefit from hydrogen-bonds (H-bonds) to a network of conserved water molecules; replacement of C-2 with a nitrogen would minimise interactions in the narrow ZA channel of BRD4(1) and N-substitution could provide further binding interactions with the protein; and alternative substitution of the hydroxyl at C-1 would provide a handle for further optimisation. […] The three best compounds, S3, S5 and S7, were destined to be separated into their component enantiomers for further evaluation (Supplementary Table 2). […]

`Cc1noc(C)c1-c1ccc2c(c1)C(c1ccccc1)N(C)C2=O` (racemic) [S3]: the ΔTm at 10 µM stood at 10.1 °C.
